Laboratory results reported in publication PMC12259270, “Sensory neuron–expressed FGF13 controls nociceptive signaling in diabetic neuropathy models” (The Journal of Clinical Investigation, 2025).
Several values for one entry are separate records, joined by “and”; a condition that tells them apart may be missing. Equal entries are not always repeated. Residues, ends and D or L forms follow the SMILES beside them. *: point of attachment. Cbz = O=C(OCc1ccccc1)*; NHPh = c1ccc(N*)cc1; OtBu = CC(C)(C)O*

Target: T1, FGF13R110A/Nav1.7 complex (Homo sapiens, UniProt Q15858+Q92913, R110A)
T1 construct: Full-length FGF13-1b (aa 1-192) was subcloned into appropriate plasmids; Nav1.7 residues 1780-1977; expressed in transfected cells; host or cells: HEK293 (inferred; the LCA paragraph only says 'cells')
T1 sequence (Q92913 1-192 isoform Q92913-2 R57A): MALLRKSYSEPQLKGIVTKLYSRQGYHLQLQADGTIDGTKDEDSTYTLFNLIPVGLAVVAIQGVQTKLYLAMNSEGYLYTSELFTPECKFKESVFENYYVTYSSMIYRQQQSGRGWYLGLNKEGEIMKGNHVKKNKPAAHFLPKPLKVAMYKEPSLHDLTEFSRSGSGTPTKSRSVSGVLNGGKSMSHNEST
T1 sequence (Q15858 1791-1988): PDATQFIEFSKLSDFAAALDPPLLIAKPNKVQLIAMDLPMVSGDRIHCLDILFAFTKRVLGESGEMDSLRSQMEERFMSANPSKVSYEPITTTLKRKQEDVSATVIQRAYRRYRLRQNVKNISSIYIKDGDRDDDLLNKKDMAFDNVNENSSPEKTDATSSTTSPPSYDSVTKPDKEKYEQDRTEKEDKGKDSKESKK
Test: LCA, CLuc-FGF13R110A/CD4-Nav1.7-CTD-NLuc
Format: cell-based
Settings: for activity against the FGF13R110A/Nav1.7 complex: LCA, PW164 20 μM, ZL192 50 μM
Source text: The respective gene ID numbers used in this study are as follows: NM_033642 (human, FGF13-1b) and NM_002977 (human SCN9A). Full-length FGF13-1b (aa 1-192) was subcloned into appropriate plasmids for use in this investigation, unless otherwise noted. For consistency with AlphaFold modeling presented, numbering of point mutations to FGF13-1b are based on the longest FGF13 isoform (FGF13-1a, NM_004114.2). CLuc-FGF13, […]
and constructs expressing the CLuc or the NLuc fragments of Firefly ( Photinus pyralis) luciferase (24) respectively were engineered, mutated (CLuc-FGF13R110A) and sequenced at the Molecular Genomics Core (University of Texas Medical Branch). The CD4 -Nav1.7-CTD-NLuc cassette was synthesized from GeneArt (Nav1.7 residues 1780-1977) (ThermoFisher) and subcloned at 5'-HindIII and 3’-BsiWi restriction sites in pcDNA3.1 (Invitrogen). Additionally, FGF13 was amplified with polymerase chain reaction (PCR) by using gene-specific primers, and subcloned in pcDNA3.1 at 5’ -BsiWi and 3’-Not I restriction sites. […]
Cell Culture and transfections
HEK293 cells were purchased from ATCC (catalog # CRL-1573). Cells were cultured and incubated at 37 °C with 5% CO2 in medium with equal volumes of Dulbecco modified essential medium (DMEM) and F12 […]
Split-luciferase Complementation Assay (LCA)
Twenty-four hours post transfection, cells were trypsinized using TrypLE (Gibco; cat # 12604013), centrifuged at 1750 rpm for 5 min, triturated in medium, and seeded into white clear-bottom 96-well CELLSTAR µClear® plates (Greiner Bio -One; cat # 655073 ) at ~0.8 x 10^5 cells per well in 200 µl of medium. The cells were incubated for another 24 hours, and then the growth medium was replaced with 100 µl serum -free, phenol red -free DMEM/F-12 medium (Invitrogen). All compounds from the PW - and the ZL-series, including PW164 and ZL192, were dissolved in DMSO, added to a final concentration of 1 –500 μM (0.5 % DMSO) in the serum -free medium and then cells were incubated for two hours. The bioluminescence reaction was initiated by injection of 100 μl of D -luciferin substrate (1.5 mg/ml dissolved in PBS) using a Synergy H4 multimode microplate reader (BioTek). Luminescence readings were initiated after 3 s of mild plate shaking and performed at 2 min intervals for 20-30 min with integration times of 0.5 s, and the c ells were maintained throughout the measurements at 37 °C. Raw signal intensity was computed by averaging peak luminescence plus two adjacent time points.
Normalized signal intensity was expressed as the percentage of mean signal intensity relative to per plate control wells treated with 0.5% DMSO.
Surface plasmon resonance (SPR)
All SPR experiments were performed on a Biacore T100 (GE Healthcare). Biotin-Nav1.7-CTD peptide […]

| SMILES | LCA signal, FGF13R110A (Figure 1B), individual replicates (FGF13R110A, ZL192 vs Vehicle) | activity against the FGF13R110A/Nav1.7 complex | Percentage luminescence, single replicates (Fig 1B, FGF13R110A, PW164 (20 μM)) |
| --- | --- | --- | --- |
| CC(=O)N[C@@H](Cc1ccccc1)C(=O)N[C@@H](CC(C)C)C(=O)N1CCC[C@H]1C(=O)N[C@@H](CCCCN)C(=O)Nc1ccccc1 [ZL192] (Ac-FLPK-NHPh) | 170.87 and 102.219 and 90.2721 and 84.4389 and 144.478 and 146.648 and 93.2954 and 156.251 and 109.034 and 101.512 and 90.7701 and 115.348 | no agonist activity | – |
| COC(=O)[C@@H](NC(=O)[C@H](CCC(=O)OC(C)(C)C)NC(=O)[C@H](CC(C)C)NC(=O)[C@@H]1CCCN1C(=O)OCc1ccccc1)C(C)C [PW164] (Cbz-PLE(OtBu)V-OMe) | – | prevented PW164 binding | 93.615% and 94.3116% and 89.4358% and 83.8635% and 99.0481% and 84.8386% and 92.9185% and 91.1075% and 93.4757% and 87.3462% and 108.8% |
